# Assay results reported in BindingDB's records for doi:10.3109/14756366.2011.614607 (Ondokuz Mayis University, 2012).
# Experiments:
# Experiment in all cases: CA Activity Assay
# Details in all cases: pH 7.4; 25 °C
# Carbonic anhydrase 1 = Carbonic anhydrase 1 (Homo sapiens, UniProt P00915)
# Procedure: (§1) The enzymatic reaction, in a total volume of 3.0 mL, contained 1.4 mL 0.05M Tris-SO4 buffer (pH 7.4), 1mL 3 mM 4-nitrophenylacetate, 0.5 mL H2O and 0.1mL enzyme solution. A reference measurement was obtained by preparing the same cuvette without enzyme solution. The inhibitory effects of the sulphonamide derivatives were examined. All compounds were tested in triplicate at each concentration used. Different concentrations of the compounds were used.
# Carbonic anhydrase 6 = Carbonic anhydrase 6 (Homo sapiens, UniProt P23280)
# Chain of Carbonic anhydrase 6 (P23280 whole entry): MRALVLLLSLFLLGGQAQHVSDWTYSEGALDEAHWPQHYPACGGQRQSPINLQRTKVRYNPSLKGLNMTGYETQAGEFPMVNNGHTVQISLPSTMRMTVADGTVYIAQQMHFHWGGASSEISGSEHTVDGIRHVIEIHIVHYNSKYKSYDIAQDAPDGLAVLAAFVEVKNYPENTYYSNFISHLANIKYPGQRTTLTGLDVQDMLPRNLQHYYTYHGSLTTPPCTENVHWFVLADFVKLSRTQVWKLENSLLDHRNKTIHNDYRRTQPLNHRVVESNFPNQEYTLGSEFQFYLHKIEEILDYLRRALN
# Procedure: as §1
# Carbonic anhydrase 2 = Carbonic anhydrase 2 (Homo sapiens, UniProt P00918)
# Procedure: as §1
# Chain of Carbonic anhydrase 1 (P00915 whole entry): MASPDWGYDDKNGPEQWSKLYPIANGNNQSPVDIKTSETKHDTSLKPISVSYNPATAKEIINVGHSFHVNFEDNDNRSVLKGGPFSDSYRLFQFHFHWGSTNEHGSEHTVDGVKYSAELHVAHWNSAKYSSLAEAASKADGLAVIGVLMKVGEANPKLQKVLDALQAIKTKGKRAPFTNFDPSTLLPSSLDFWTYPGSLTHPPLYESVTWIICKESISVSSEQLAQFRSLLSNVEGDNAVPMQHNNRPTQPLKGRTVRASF
Ki (Carbonic anhydrase 1) [µM],Ki (Carbonic anhydrase 6) [µM],Ki (Carbonic anhydrase 2) [µM],Compound
118,21.2,–,Cc1ccc(S(N)(=O)=O)cc1
48.1,2.24,1.13,"CCOC1Oc2c(Br)cccc2C(=O)/C1=C\Nc1ccc(S(N)(=O)=O)cc1 (centres undefined) [hCA inhibitor, 3]"
–,4.11,–,NS(=O)(=O)c1ccccc1
13.7,0.943,0.228,"CCOC1Oc2ccccc2C(=O)/C1=C\Nc1ccc(S(N)(=O)=O)cc1 (centres undefined) [hCA inhibitor, 1]"
71.2,4.28,1.86,"CCOC1Oc2c(Br)cc(Br)cc2C(=O)/C1=C\Nc1ccc(S(N)(=O)=O)cc1 (centres undefined) [hCA inhibitor, 4]"
–,1.01,–,NCc1ccc(S(N)(=O)=O)cc1 [aromatic sulfonamide compound 6]
–,1.21,–,Nc1ccc(S(N)(=O)=O)cc1 [aromatic sulfonamide compound 5]
